Experimental data: patent US20140023592A1, “SELF COUPLING RECOMBINANT ANTIBODY FUSION PROTEINS” (RWTH Aachen, priority 2007, published 2014)

System: FKBP-AGT fusion protein (SNAP-FKBP)
Experiment: Reactivity with FKBP-AGT fusion protein (protein trimer formation, SDS-PAGE/coomassie)
Format: biochemical
Conditions: in vitro, 4 h incubation at rt, SDS-PAGE with coomassie staining
Experimental: Determination of the Reactivity of Compound (FIG. 89), (FIG. 90), (FIG. 91), (FIG. 92) and (FIG. 96) with FKBP-AGT Fusion Protein 1 μL of a 591 μM solution of FKBP protein fused to a variant of AGT available from Covalys as […] and 1 μL of a 100 μM solution of compound (FIG. 89), (FIG. 90), (FIG. 91), (FIG. 92) or (FIG. 96) are added to 8 μL of a solution of 50 mM Tris-HCl pH 7.5; 100 mM NaCl; 0.1% Tween20TM; 1 mM DTT. Following a 4 h incubation at rt, 15 μL of a solution of 100 mM Tris-HCl pH 6.8; 2% SDS; 35% glycerol; 10 mM EDTA; 20 mM DTT is added. Then the mixture is boiled for 5 min at 95° C. After cooling to rt, 25 μL of this solution is loaded on a 4-20% linear gradient SDS-PAGE gel. After electrophoresis, the proteins are coomassie stained in gel to visualize protein trimer.

Sequence of FKBP-AGT fusion protein (SNAP-FKBP) (P16455 1-182 C62A/K125A/A127T/R128A/G131K/G132T/M134L/R135S/C150S/N157G/S159E limits assumed): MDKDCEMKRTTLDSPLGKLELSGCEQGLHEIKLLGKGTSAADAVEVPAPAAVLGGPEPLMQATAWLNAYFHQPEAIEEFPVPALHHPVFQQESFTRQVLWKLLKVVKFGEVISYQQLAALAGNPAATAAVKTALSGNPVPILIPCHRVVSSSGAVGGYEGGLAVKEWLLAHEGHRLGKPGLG

Substance	structural ability to trigger the formation of a protein trimer
N-Tris-{[2-(BG-PEG12-NH)-carbonylethoxy]methyl}-methyl 5-maleimidopentanecarboxamide [FIG. 92]	confirmed
N-Tris-{[2-(BG-PEG12-NH)-carbonylethoxy]methyl}-methyl ATTO-495-carboxamide [FIG. 90]	confirmed
N-Tris-{[2-(BG-PEG12-NH)-carbonylethoxy]methyl}-methyl nile red-oxyacetamide [FIG. 91]	confirmed
N-Tris-{[2-(BG-PEG12-NH)-carbonylethoxy]methyl}-methyl-3-[2-(2-maleimidoethyl)disulfanyl]propanoylamide [FIG. 96]	confirmed
N-Tris-{[2-(BG-PEG12-NH)-carbonylethoxy]methyl}methyl 7-(diethylamino)coumarin-3-carboxamide [FIG. 89]	confirmed
